Experimental data taken from patent US12583861B2, “Derivatives of imidazo[4,5-d]pyridazine, their preparation and their therapeutic application” (SANOFI, priority 2021, dated 2026).
Counter-ions that a name gives are not always drawn.

How the values were obtained:
[1] = molecular target: T1, human TLR7 (Homo sapiens, UniProt Q9NYK1); assay: HEK-Blue hTLR7 reporter cell assay (SEAP, NF-kB/AP-1) for stimulation of human TLR7; assay type: cell-based; conditions: HEK-Blue hTLR7 cells; for EC50: 24 h incubation, SEAP readout, read-out: TLR7_EC50
T1 construct: host or cells: HEK293 (HEK-Blue hTLR7)
T1 sequence (Q9NYK1 27-1049): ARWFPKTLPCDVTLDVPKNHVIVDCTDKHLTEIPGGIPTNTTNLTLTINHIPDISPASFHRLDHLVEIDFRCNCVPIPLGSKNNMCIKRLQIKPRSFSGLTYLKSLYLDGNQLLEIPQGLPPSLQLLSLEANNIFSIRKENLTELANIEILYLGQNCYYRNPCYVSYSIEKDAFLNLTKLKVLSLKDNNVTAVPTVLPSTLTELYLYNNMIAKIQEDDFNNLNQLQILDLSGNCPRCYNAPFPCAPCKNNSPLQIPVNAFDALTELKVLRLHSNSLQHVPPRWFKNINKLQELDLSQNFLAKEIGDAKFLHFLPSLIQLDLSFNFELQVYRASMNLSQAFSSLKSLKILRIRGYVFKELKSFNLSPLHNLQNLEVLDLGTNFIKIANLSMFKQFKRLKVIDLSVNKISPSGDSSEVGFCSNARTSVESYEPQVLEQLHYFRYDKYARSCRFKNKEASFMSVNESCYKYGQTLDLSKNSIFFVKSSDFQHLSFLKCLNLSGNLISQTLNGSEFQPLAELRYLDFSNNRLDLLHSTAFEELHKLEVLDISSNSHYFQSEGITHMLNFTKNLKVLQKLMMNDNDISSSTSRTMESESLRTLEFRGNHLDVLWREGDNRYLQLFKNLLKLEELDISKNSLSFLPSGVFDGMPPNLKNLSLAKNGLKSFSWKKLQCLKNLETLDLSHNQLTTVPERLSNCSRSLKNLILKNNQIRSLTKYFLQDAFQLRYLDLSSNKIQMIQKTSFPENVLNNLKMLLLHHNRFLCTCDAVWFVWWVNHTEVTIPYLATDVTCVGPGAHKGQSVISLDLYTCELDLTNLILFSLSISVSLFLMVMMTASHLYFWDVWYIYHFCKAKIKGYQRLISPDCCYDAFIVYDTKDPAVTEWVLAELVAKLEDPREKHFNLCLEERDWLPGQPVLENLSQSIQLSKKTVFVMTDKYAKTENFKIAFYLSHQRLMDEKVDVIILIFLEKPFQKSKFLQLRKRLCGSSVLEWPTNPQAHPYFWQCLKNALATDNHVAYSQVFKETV
Method in brief: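 Activity expressed as EC50 for half-maximal SEAP induction. Compounds, serially diluted 3-fold from 20 to 0.01 μM, were incubated 24 h at 37 °C, 5% CO2 with HEK-Blue hTLR7 reporter cells (3.10E4/well, plated 18–24 h earlier); supernatant developed with QUANTI-Blue.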

[2] = molecular target: T2, human TLR8 (Homo sapiens, UniProt Q9NR97); assay: HEK-Blue hTLR8 reporter cell assay (SEAP, NF-kB/AP-1) for stimulation of human TLR8; assay type: cell-based; conditions: HEK-Blue hTLR8 cells; for EC50: 24 h incubation, SEAP readout, read-out: TLR8_EC50
T2 construct: host or cells: HEK293 (HEK-Blue hTLR8)
T2 sequence (Q9NR97 27-1041): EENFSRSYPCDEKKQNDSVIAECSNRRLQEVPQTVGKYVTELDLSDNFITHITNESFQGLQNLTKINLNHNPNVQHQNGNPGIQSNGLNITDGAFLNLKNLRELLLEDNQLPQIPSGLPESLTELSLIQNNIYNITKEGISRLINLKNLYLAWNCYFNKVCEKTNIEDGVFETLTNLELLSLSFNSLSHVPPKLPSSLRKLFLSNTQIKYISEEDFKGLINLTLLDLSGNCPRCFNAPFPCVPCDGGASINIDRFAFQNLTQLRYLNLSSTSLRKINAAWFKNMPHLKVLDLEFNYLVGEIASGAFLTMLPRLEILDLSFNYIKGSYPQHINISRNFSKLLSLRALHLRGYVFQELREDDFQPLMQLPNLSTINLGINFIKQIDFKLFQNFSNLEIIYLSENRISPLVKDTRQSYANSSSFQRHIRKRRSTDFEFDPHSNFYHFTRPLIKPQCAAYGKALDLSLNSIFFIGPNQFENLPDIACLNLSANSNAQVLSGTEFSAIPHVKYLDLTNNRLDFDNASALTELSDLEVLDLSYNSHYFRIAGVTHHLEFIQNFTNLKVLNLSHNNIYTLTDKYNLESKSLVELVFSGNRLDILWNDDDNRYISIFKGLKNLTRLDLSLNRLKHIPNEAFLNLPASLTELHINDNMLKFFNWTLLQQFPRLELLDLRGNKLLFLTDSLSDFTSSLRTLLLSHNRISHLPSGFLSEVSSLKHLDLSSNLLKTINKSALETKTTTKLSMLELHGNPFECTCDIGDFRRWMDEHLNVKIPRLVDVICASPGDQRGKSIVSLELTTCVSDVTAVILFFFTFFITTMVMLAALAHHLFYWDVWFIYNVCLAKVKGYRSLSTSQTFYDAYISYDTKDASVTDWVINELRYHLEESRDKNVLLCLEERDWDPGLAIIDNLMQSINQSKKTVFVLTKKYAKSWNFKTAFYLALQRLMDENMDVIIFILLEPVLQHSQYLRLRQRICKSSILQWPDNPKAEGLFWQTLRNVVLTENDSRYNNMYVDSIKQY
Method in brief: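 Stimulation is quantified as secreted alkaline phosphatase in supernatant using QUANTI-Blue™ substrate. Reporter HEK293 line co-transfected with hTLR8 and SEAP under an IFN-β minimal promoter with five NF-κB/AP-1 sites; 3.10E4 cells/well, 18 to 24 h pre-culture at 37° C. before compounds.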

Work on `CCCCc1nc2c(N)nnc(OC(C)C)c2n1Cc1ccc(CNCCOCCOCCOCCOC)cc1` [Compound 121, 2-butyl-4-isopropoxy-3-[[4-[[2-[2-[2-(2-methoxyethoxy)ethoxy]ethoxy]ethylamino]methyl]phenyl]methyl]imidazo[4,5-d]pyridazin-7-amine] yielded an EC50 [1] of 86 nM and an EC50 [2] of 15900 nM.
With `CCCCc1nc2c(N)nnc(OC(C)C)c2n1Cc1ccc(CNCCOCCOCCOCCOCCOCCOCCOCCOC)cc1` [Compound 122, 2-butyl-4-isopropoxy-3-[[4-[[2-[2-[2-[2-[2-[2-[2-(2-methoxyethoxy)ethoxy]ethoxy]ethoxy]ethoxy]ethoxy]ethoxy]ethylamino]methyl]phenyl]methyl]imidazo[4,5-d]pyridazin-7-amine di2,2,2-trifluoroacetate] the EC50 [1] was 729 nM and the EC50 [2] was > 20000 nM.
In the case of `CCCCc1nc2c(N)nnc(OC(C)C)c2n1Cc1ccc(CNCCOCCOCCOCCOCCOCCOCCOCCOCCOCCOCCOCCOC)cc1` [Compound 123, 2-butyl-4-isopropoxy-3-[[4-[[2-[2-[2-[2-[2-[2-[2-[2-[2-[2-[2-(2-methoxyethoxy)ethoxy]ethoxy]ethoxy]ethoxy]ethoxy]ethoxy]ethoxy]ethoxy]ethoxy]ethoxy]ethylamino]methyl]phenyl]methyl]imidazo[4,5-d]pyridazin-7-amine di2,2,2-trifluoroacetate], the activation at 20 µM ([1]; 24 h, at 20000 nM) is reported as 13.5% and the activation at 20 µM ([2]; 24 h, at 20000 nM) is reported as 10.2%.
Compound `CCCCc1nc2c(N)nnc(OC(C)C)c2n1Cc1cccc(CNC)c1` [Compound 124, 2-butyl-7-isopropoxy-1-(3-((methylamino)methyl)benzyl)-1H-imidazo[4,5-d]pyridazin-4-amine] has an EC50 [1] of 178 nM and an EC50 [2] of 231 nM.
`CCCCc1nc2c(N)nnc(OC(C)C)c2n1Cc1cccc(CN(C)C)c1` [Compound 125, 2-butyl-1-(3-((dimethylamino)methyl)benzyl)-7-isopropoxy-1H-imidazo[4,5-d]pyridazin-4-amine] was tested, and the EC50 [1] was 392 nM and the EC50 [2] was 115 nM.
`CCCCc1nc2c(N)nnc(OC(C)C)c2n1Cc1cccc(CNC2CCC2)c1` [Compound 126, 2-butyl-1-(3-((cyclobutylamino)methyl)benzyl)-7-isopropoxy-1H-imidazo[4,5-d]pyridazin-4-amine dihydrochloride salt] gave an EC50 [1] of 122 nM and an EC50 [2] of 382 nM.
`CCCCc1nc2c(N)nnc(OC(C)C)c2n1Cc1cccc(CNC2CC2)c1` [Compound 127, 2-butyl-1-(3-((cyclopropylamino)methyl)benzyl)-7-isopropoxy-1H-imidazo[4,5-d]pyridazin-4-amine dihydrochloride salt] showed an EC50 [1] of 93 nM and an EC50 [2] of 179 nM.
With `CCCCc1nc2c(N)nnc(OC(C)C)c2n1Cc1cccc(CNC(C)C)c1` [Compound 128, 2-butyl-7-isopropoxy-1-(3-((isopropylamino)methyl)benzyl)-1H-imidazo[4,5-d]pyridazin-4-amine dihydrochloride salt] the EC50 [1] was 5980 nM and the EC50 [2] was > 20000 nM.
Work on `CCCCc1nc2c(N)nnc(OC(C)C)c2n1Cc1cccc(CNC2CS(=O)(=O)C2)c1` [Compound 129, 3-((3-((4-amino-2-butyl-7-isopropoxy-1H-imidazo[4,5-d]pyridazin-1-yl)methyl)benzyl)amino)thietane 1,1-dioxide] yielded an EC50 [1] of 1550 nM and an EC50 [2] of 6260 nM.
For `CCCCc1nc2c(N)nnc(OC(C)C)c2n1Cc1cccc(CNC2(C)CCC2)c1` [Compound 130, 2-butyl-7-isopropoxy-1-(3-(((1-methylcyclobutyl)amino)methyl)benzyl)-1H-imidazo[4,5-d]pyridazin-4-amine dihydrochloride salt], the EC50 [1] was 76 nM and the EC50 [2] was 1060 nM.
`CCCCc1nc2c(N)nnc(OC(C)C)c2n1Cc1cccc(CN2CCNCC2)c1` [Compound 131, 2-butyl-7-isopropoxy-1-(3-(piperazin-1-ylmethyl)benzyl)-1H-imidazo[4,5-d]pyridazin-4-amine] was tested, and the EC50 [1] was 607 nM and the EC50 [2] was > 20000 nM.
In the case of `CCCCc1nc2c(N)nnc(/C=C/C(C)C)c2n1Cc1ccc(CN)cc1` [Compound 132, (E)-1-(4-(aminomethyl)benzyl)-2-butyl-7-(3-methylbut-1-en-1-yl)-1H-imidazo[4,5-d]pyridazin-4-amine], the EC50 [1] is reported as 296 nM and the EC50 [2] is reported as > 18500 nM.
For `CCCCc1nc2c(N)nnc(CCC(C)C)c2n1Cc1ccc(CN)cc1` [Compound 133, 1-(4-(aminomethyl)benzyl)-2-butyl-7-isopentyl-1H-imidazo[4,5-d]pyridazin-4-amine], the EC50 [1] was 146 nM and the EC50 [2] was > 19000 nM.
With `CCCCc1nc2c(N)nnc(N3CCCC3)c2n1Cc1ccc(CN)cc1` [Compound 134, 1-(4-(aminomethyl)benzyl)-2-butyl-7-(pyrrolidin-1-yl)-1H-imidazo[4,5-d]pyridazin-4-amine] the EC50 [1] was 274 nM and the EC50 [2] was > 20000 nM.
In the case of `CCCCc1nc2c(N)nnc(-c3cc[nH]c3)c2n1Cc1ccc(CN)cc1` [Compound 135, 1-(4-(aminomethyl)benzyl)-2-butyl-7-(1H-pyrrol-3-yl)-1H-imidazo[4,5-d]pyridazin-4-amine 2,2,2-trifluoroacetate], the EC50 [1] is reported as 136 nM and the EC50 [2] is reported as 252 nM.
In the case of `CCCCc1nc2c(N)nnc(/C=C/C(C)C)c2n1C[C@H]1CC[C@H](CN)CC1` [Compound 137, 1-(((1R,4R)-4-(aminomethyl)cyclohexyl)methyl)-2-butyl-7-((E)-3-methylbut-1-en-1-yl)-1H-imidazo[4,5-d]pyridazin-4-amine], the EC50 [1] is reported as 145 nM and the EC50 [2] is reported as > 20000 nM.
With `CCCCc1nc2c(N)nnc(CCC(C)C)c2n1C[C@H]1CC[C@H](CN)CC1` [Compound 138, 1-(((1R,4R)-4-(aminomethyl)cyclohexyl)methyl)-2-butyl-7-isopentyl-1H-imidazo[4,5-d]pyridazin-4-amine] the EC50 [1] was 51.4 nM and the EC50 [2] was > 20000 nM.
With `CCCCc1nc2c(N)nnc(/C=C/C(C)C)c2n1C[C@H]1CC[C@H](N)CC1` [Compound 139, 1-(((1R,4R)-4-aminocyclohexyl)methyl)-2-butyl-7-((E)-3-methylbut-1-en-1-yl)-1H-imidazo[4,5-d]pyridazin-4-amine] the EC50 [1] was 370 nM and the EC50 [2] was > 20000 nM.
`CCCCc1nc2c(N)nnc(CCC(C)C)c2n1C[C@H]1CC[C@H](N)CC1` [Compound 140, 1-(((1R,4R)-4-aminocyclohexyl)methyl)-2-butyl-7-isopentyl-1H-imidazo[4,5-d]pyridazin-4-amine] was tested, and the EC50 [1] was 1310 nM and the EC50 [2] was > 20000 nM.
